As usually defined, the EC50 is the concentration needed to bring the measured effect to its halfway point. The pIC50 is the IC50 on a negative log10 scale, so that one unit is a factor of ten. Low values mean a high IC50, high ones a low IC50.

Experimental findings from PMC5814837 (Pest Management Science, 2017) are described below.

Structures are written as SMILES. pIC50: −log10 of the molar value. Values after ≈ are worked out from the molar mass of the structure shown. Values joined by “and” are separate entries in the source; they are usually repeats but may differ in a detail not shown here. Equal values may be shown once. Read-outs that look alike come from different tables or passages of the source.

Assay [1] relates to Zymoseptoria tritici. Kind of assay: microbe, parasite or virus in culture. Type of assay: cell-based.
Assay [2] has as its system Zymoseptoria tritici. The settings on record: in vivo.
The target of assay [3] is mitochondrial succinate dehydrogenase (SDH). Kind of assay: biochemical. The arrangement: species or system Zymoseptoria tritici.
In assay [4] the target is mitochondrial succinate dehydrogenase (SDH) (Zymoseptoria tritici, UniProt F9X9V6+F9XH52+O42772). Kind of assay: biochemical. The settings on record: IC50.
Setting [5] is: Zymoseptoria tritici, read-out: EC50 Median.
Setting [6] is: Zymoseptoria tritici, read-out: EC50 Range.

mitochondrial succinate dehydrogenase (SDH) (Zymoseptoria tritici, UniProt F9X9V6+F9XH52+O42772), sequence (O42772 19-297): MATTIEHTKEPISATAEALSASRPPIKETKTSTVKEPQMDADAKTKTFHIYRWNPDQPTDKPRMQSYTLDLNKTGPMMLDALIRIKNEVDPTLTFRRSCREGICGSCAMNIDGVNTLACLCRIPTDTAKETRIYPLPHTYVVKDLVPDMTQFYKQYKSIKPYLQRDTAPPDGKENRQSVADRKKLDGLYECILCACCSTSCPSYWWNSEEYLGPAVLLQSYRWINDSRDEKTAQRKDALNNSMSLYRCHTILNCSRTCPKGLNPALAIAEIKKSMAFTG
mitochondrial succinate dehydrogenase (SDH) (Zymoseptoria tritici, UniProt F9X9V6+F9XH52+O42772), sequence (F9XH52 44-187): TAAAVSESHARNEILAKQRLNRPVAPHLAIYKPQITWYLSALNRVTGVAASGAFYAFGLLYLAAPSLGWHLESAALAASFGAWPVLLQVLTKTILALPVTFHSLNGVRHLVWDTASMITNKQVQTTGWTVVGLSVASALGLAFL
mitochondrial succinate dehydrogenase (SDH) (Zymoseptoria tritici, UniProt F9X9V6+F9XH52+O42772), sequence (F9X9V6 1-193): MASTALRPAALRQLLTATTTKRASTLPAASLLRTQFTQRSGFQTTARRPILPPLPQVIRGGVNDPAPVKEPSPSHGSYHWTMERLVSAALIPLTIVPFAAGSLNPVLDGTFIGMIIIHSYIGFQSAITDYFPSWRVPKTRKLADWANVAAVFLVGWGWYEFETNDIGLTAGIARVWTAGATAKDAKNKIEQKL
mitochondrial succinate dehydrogenase (SDH) (Zymoseptoria tritici, UniProt F9X9V6+F9XH52+O42772), sequence (F9WWR1 29-643 partner): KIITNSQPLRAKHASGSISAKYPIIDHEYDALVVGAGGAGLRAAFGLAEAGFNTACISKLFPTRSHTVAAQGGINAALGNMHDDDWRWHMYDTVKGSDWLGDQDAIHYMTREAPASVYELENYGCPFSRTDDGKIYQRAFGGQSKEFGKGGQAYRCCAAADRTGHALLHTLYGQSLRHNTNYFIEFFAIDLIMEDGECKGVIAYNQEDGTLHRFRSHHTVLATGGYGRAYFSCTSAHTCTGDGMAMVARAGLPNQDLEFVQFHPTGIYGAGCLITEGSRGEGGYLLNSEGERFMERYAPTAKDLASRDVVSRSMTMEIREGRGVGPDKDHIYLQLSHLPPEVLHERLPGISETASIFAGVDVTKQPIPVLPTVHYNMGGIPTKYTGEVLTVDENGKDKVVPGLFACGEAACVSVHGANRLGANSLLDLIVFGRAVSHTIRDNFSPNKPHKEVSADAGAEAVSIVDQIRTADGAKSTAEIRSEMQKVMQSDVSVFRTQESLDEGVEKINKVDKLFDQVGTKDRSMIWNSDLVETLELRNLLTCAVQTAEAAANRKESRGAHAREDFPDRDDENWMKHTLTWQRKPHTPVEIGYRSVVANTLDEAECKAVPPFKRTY

Regarding `O=C(NCCc1ncc(C(F)(F)F)cc1Cl)c1ccccc1C(F)(F)F` [Fluopyram, fluopyram], the EC50 was 0.20 µg/mL (≈ 0.504 µM) in the assay on Zymoseptoria tritici [1], 0.2 µg/mL (≈ 0.504 µM) with Zymoseptoria tritici [1] (Zymoseptoria tritici), 0.19 µg/mL (≈ 0.479 µM) in the assay with Zymoseptoria tritici [1] (setting [5]) and 0.08 to 7.78 µg/mL (≈ 0.202 to 19.6 µM) in the assay with Zymoseptoria tritici [1] (setting [6]). The “EC50 Median” value with Zymoseptoria tritici [1] is 0.215 µg/mL (≈ 0.542 µM). Besides, in the assay with Zymoseptoria tritici [2], the “application rate providing control” value was not below 30 mg/L. Moreover, the “in planta control (in words)” value in the assay on Zymoseptoria tritici [2] is “not controlled”.
In the assay with Zymoseptoria tritici [1] (Zymoseptoria tritici), `CC(C)CC(C)c1sccc1NC(=O)c1cn(C)nc1C(F)(F)F` (stereo not drawn) [Penthiopyrad, penthiopyrad] yielded an EC50 of 0.05 µg/mL (≈ 0.139 µM).
As to `N#Cc1c(Cl)c(Cl)c(Cl)c(C#N)c1Cl` [Chlorothalonil, chlorothalonil], in the assay on Zymoseptoria tritici [1], the “Resistance factor (RF)” value is 0.8 and 1.2 and 1.3 and 1.4 and 0.7; the “sensitivity of strains (in words)” value is “sensitive”. Also, a half-maximal response in the assay on Zymoseptoria tritici [1] (Zymoseptoria tritici) (EC50) required 0.13 µg/mL (≈ 0.489 µM).
For the compound `Cn1cc(C(=O)Nc2ccccc2-c2cc(F)c(F)c(F)c2)c(C(F)F)n1` [Fluxapyroxad], the EC50 with Zymoseptoria tritici [1] and in the assay on Zymoseptoria tritici [1] (Zymoseptoria tritici) was 0.04 µg/mL (≈ 0.105 µM) throughout. Further, the “RF in comparison with reference strain IPO323” value in the assay on Zymoseptoria tritici [1] is recorded as less than 10.
As to `[Cl][Sn]([c]1ccccc1)([c]1ccccc1)[c]1ccccc1` [Fentin Cl, fentin chloride], the EC50 with Zymoseptoria tritici [1] stood at 0.07 µg/mL.
Regarding `Cc1cc(OC(C)C)ccc1C(=O)C(C)(C)NC(=O)c1sccc1C` [Isofetamid, N‐[1,1‐dimethyl‐2‐(4‐isopropoxy‐o‐tolyl)‐2‐oxoethyl]‐3‐methylthiophene‐2‐carboxamide], the EC50 is 0.06 µg/mL (≈ 0.167 µM) in the assay with Zymoseptoria tritici [1]; 0.09 µg/mL (≈ 0.25 µM) with Zymoseptoria tritici [1] (setting [5]); more than 50 µg/mL with Zymoseptoria tritici [1] (Zymoseptoria tritici, read-out: high EC50 values (upper end of the sensitivity range)). In the assay on Zymoseptoria tritici [1], the “EC50 Median” value came out at 0.096 µg/mL (≈ 0.267 µM). The “in planta control (in words)” value with Zymoseptoria tritici [2] is given as “not controlled”.
For `Cc1cccc(N(C)C(=S)Oc2ccc3ccccc3c2)c1` [Tolnaftate, tolnaftate], in the assay with Zymoseptoria tritici [1], the “growth in the presence of tolnaftate” value is given as “none of these strains was able to grow”. In the assay with Zymoseptoria tritici [1] (Zymoseptoria tritici), this compound displayed an EC50 of 0.17 µg/mL (≈ 0.553 µM).
Compound `O=C(Nc1ccccc1-c1ccc(Cl)cc1)c1cccnc1Cl` [Boscalid, boscalid] displayed an EC50 with Zymoseptoria tritici [1] (Zymoseptoria tritici) of 0.16 µg/mL (≈ 0.466 µM).
For the compound `Cn1cc(C(=O)Nc2ccc(F)cc2-c2ccc(Cl)c(Cl)c2)c(C(F)F)n1` [Bixafen, bixafen], the pIC50 was 7.51 and 7.31 in assay [3]; 7.48 and 7.42 in assay [4]. In addition, the EC50 in the assay on Zymoseptoria tritici [1] was 0.03 µg/mL (≈ 0.0724 µM); in the assay with Zymoseptoria tritici [1] (Zymoseptoria tritici), 0.03 µg/mL (≈ 0.0724 µM); in the assay with Zymoseptoria tritici [1] (setting [5]), 0.063 µg/mL (≈ 0.152 µM); in the assay on Zymoseptoria tritici [1] (setting [6]) it was 0.017 to 0.406 µg/mL (≈ 0.041 to 0.98 µM). Further, in the assay with Zymoseptoria tritici [1], the “EC50 Median” value worked out at 0.096 µg/mL (≈ 0.232 µM). In the assay with Zymoseptoria tritici [2], this compound registered a Control efficacy of 0%. Also, the “application rate at which strain was well controlled” value in the assay with Zymoseptoria tritici [2] amounted to 3 mg/L. Besides, the “application rate at which strains were well controlled” value in the assay with Zymoseptoria tritici [2] stood at 10 mg/L.
